Assay results as given in patent US9730445B2, “Herbicidal compositions comprising 4-amino-3-chloro-5-fluoro-6-(4-chloro-2-fluoro-3-methoxyphenyl) pyridine-2-carboxylic acid or a derivative thereof and fungicides” (DOW AGROSCIENCES LLC, priority 2013, dated 2017).

What was measured:
BRAPP = experiment: Postemergence foliar-applied weed control, direct-seeded rice (greenhouse); format: in vivo
Text: (§1) Seeds or nutlets of the desired test plant species were planted in a soil matrix prepared by mixing aloam or sandy loam soil (e.g., 28.6 percent silt, 18.8 percent clay, and 52.6 percent sand, with a pH of about 5.8 and an organic matter content of about 1.8 percent) and calcareous grit in an 80 to 20 ratio. The soil matrix was contained in plastic pots with a volume of 1 quart and a surface area of 83.6 square centimeters (cm^2). When required to ensure good germination and healthy plants, a fungicide treatment and/or other chemical or physical treatment was applied. The plants were grown for 8-22 days in a greenhouse with an approximate 14 hour (h) photoperiod which was maintained at about 29° C. during the day and 26° C. during the night. Nutrients (Peters Excel® 15-5-15 5-Ca 2-Mg and iron chelate) were applied in the irrigation solution as needed and water was added on a regular basis. Supplemental lighting was provided with overhead metal halide 1000-Watt lamps as necessary. The plants were employed for testing when they reached the first through fourth true leaf stage.
(§2) Treatments consisted of the acid or esters of 4-amino-3-chloro-5-fluoro-6-(4-chloro-2-fluoro-3-methoxy-phenyl)pyridine-2-carboxylic acid (Compound A), each formulated as an SC (suspension concentrate), and various fungicidal components alone and in combination. Forms of compound A were applied on an acid equivalent basis.
(§3) Treatment requirements were calculated based upon the rates being tested, the concentration of active ingredient or acid equivalent in the formulation and a 12 milliliter (mL) application volume at a rate of 187 liters per hectare (L/ha).
(§4) For treatments comprised of formulated compounds, measured amounts of compounds were placed individually in 25 mL glass vials and diluted in a volume of 1.25% volume per volume (v/v) Agri-Dex® crop oil concentrate to obtain 12× stock solutions. […] Application solutions were prepared by adding an appropriate amount of each stock solution (e.g., 1 mL) and diluted to the appropriate final concentrations with the addition of […] of an aqueous mixture of 1.25% (v/v) crop oil concentrate so that the final spray solutions contained 1.25+/−0.05% (v/v) crop oil concentrate.
(§5) For treatments comprised of technical compounds, weighed amounts can be placed individually in 25 mL glass vials and dissolved in a volume of 97:3 volume per volume (v/v) acetone/dimethyl sulfoxide (DMSO) to obtain 12× stock solutions. […] When technical materials are used, the concentrated stock solutions can be added to the spray solutions so that the final acetone and DMSO concentrations of the application solutions are 16.2% and 0.5%, respectively.
(§6) As required, additional water and/or 97:3 v/v acetone/DMSO was added to individual application solutions so that the final acetone and DMSO concentrations of the application solutions being compared were 8.1% and 0.25%, respectively
(§7) All stock solutions and applications solutions were visually inspected for compound compatibility prior to application. Spray solutions were applied to the plant material with an overhead Mandel track sprayer equipped with 8002E nozzles calibrated to deliver 187 L/ha over an application area of 0.503 square meters (m^2) at a spray height of 18 to 20 inches (46 to 50 cm) above average plant canopy height. Control plants were sprayed in the same manner with the solvent blank.
(§8) The treated plants and control plants were placed in a greenhouse as described above and watered by sub-irrigation to prevent wash-off of the test compounds. After approximately 3 weeks, the condition of the test plants as compared with that of the untreated plants was determined visually and scored on a scale of 0 to 100 percent where 0 corresponds to no injury or growth inhibition and 100 corresponds to complete kill. […]

CYPIR = experiment: as above; format: in vivo, Cyperus iria L. (rice flatsedge); settings: 21 DAA
Experimental: as §1, with “When required to ensure good germination and healthy plants, a fungicide treatment and/or other chemical or physical treatment was applied.” left out
as §2, §4, §5, §6, §7
(§9) The treated plants and control plants were placed in a greenhouse as described above and watered by sub-irrigation to prevent wash-off of the test compounds. After approximately 3 weeks, the condition of the test plants as compared with that of the untreated plants was determined visually and scored on a scale of 0 to 100 percent where 0 corresponds to no injury or growth inhibition and 100 corresponds to complete kill.
(§10) Colby's equation was used to determine the herbicidal effects expected from the mixtures (Colby, S. R. Calculation of the synergistic and antagonistic response of herbicide combinations. Weeds 1967, 15, 20-22.).
(§11) The following equation was used to calculate the expected activity of mixtures containing two active ingredients, A and B: Expected=A+B−(A×B/100)

ECHCG = experiment: as above; format: in vivo, Echinochloa crus-galli (L.) P. Beauv. (barnyardgrass)
Experimental: as §1, with “When required to ensure good germination and healthy plants, a fungicide treatment and/or other chemical or physical treatment was applied.” left out
as §2, §4, §5, §6, §7, §9, §10, §11

ECHCO = experiment: as above; format: in vivo, Echinochloa colonum (L.) LINK (junglerice); settings: 21 DAA
Text: as §1, §2, §3, §4, §5, §6, §7, §8

IPOHE = experiment: as above; format: in vivo, Ipomoea hederacea (L.) Jacq. (ivyleaf morningglory); settings: r29-30 ester 8/16 g ae/ha alone, r31-33 hexaconazole 25/50/100 g ai/ha alone, r34-39 ester 8/16 at each of 25, 50, 100
Experimental: as §1, with “When required to ensure good germination and healthy plants, a fungicide treatment and/or other chemical or physical treatment was applied.” left out
as §2, §4, §5, §6, §7, §9, §10, §11

LEFCH [1] = experiment: as above; format: in vivo, Leptochloa chinensis (L.) Nees (Chinese sprangletop); settings: 21 DAA
Experimental: as §1, with “When required to ensure good germination and healthy plants, a fungicide treatment and/or other chemical or physical treatment was applied.” left out
as §2, §4, §5, §6, §7, §9, §10, §11

CYPES = experiment: as above; format: in vivo, Cyperus esculentus L. (yellow nutsedge)
Experimental: as §1, with “When required to ensure good germination and healthy plants, a fungicide treatment and/or other chemical or physical treatment was applied.” left out
as §2, §4, §5, §6, §7, §8

CYPRO = experiment: In-water applied weed control, transplanted paddy rice (greenhouse); format: in vivo, Cyperus rotundus L. (purple nutsedge)
Experimental: (§12) Weed seeds or nutlets of the desired test plant species were planted in puddled soil (mud) prepared by mixing a shredded, non-sterilized mineral soil (50.5 percent silt, 25.5 percent clay, and 24 percent sand, with a pH of about 7.6 and an organic matter content of about 2.9 percent) and water at a 1:1 volumetric ratio. The prepared mud was dispensed in 365 mL aliquots into 16-ounce (oz.) non-perforated plastic pots with a surface area of 86.59 square centimeters (cm^2) leaving a headspace of 3 centimeters (cm) in each pot. Rice seeds were planted in Sun Gro MetroMix® 306 planting mixture, which typically has a pH of 6.0 to 6.8 and an organic matter content of about 30 percent, in plastic plug trays. Seedlings at the second or third leaf stage of growth were transplanted into 860 mL of mud contained in 32-oz. non-perforated plastic pots with a surface area of 86.59 cm^2 4 days prior to herbicide application. The paddy was created by filling the headspace of the pots with 2.5 to 3 cm of water. When required to ensure good germination and healthy plants, a fungicide treatment and/or other chemical or physical treatment was applied. The plants were grown for 4-22 days in a greenhouse with an approximate 14 hour (h) photoperiod which was maintained at about 29° C. during the day and about 26° C. during the night. Nutrients were added as Osmocote® (17:6:10, N:P:K+minor nutrients) at 2 g per cup. Water was added on a regular basis to maintain the paddy flood, and supplemental lighting was provided with overhead metal halide 1000-Watt lamps as necessary. The plants were employed for testing when they reached the first through fourth true leaf stage.
as §2, with “(compound A)” for “(Compound A),”, “concentrate)” for “concentrate),”
(§13) Treatment requirements for each compound or fungicidal component were calculated based upon the rates being tested, the concentration of active ingredient or acid equivalent in the formulation, an application volume of 2 mL per component per pot, and an application area of 86.59 cm^2 per pot.
For formulated compounds, a measured amount was placed in an individual 100 or 200 mL glass vial and was dissolved in a volume of 1.25% (v/v) Agri-Dex® crop oil concentrate to obtain application solutions.
For technical grade compounds, a weighed amount was placed in an individual 100 to 200 mL glass vial and dissolved in a volume of acetone to obtain concentrated stock solutions.
Applications were made by injecting with a pipetter appropriate amounts of the application solutions, individually and sequentially, into the aqueous layer of the paddy. Control plants were treated in the same manner with the solvent blank. Applications were made so that all treated plant material received the same concentrations of acetone and crop oil concentrate.
as §9, with “water was added as needed” for “watered by sub-irrigation”, “maintain a paddy flood.” for “prevent wash-off of the test compounds.”, “weeks” for “weeks,”
as §10, §11

FIMMI = experiment: as above; format: in vivo, Fimbristylis miliacea (L.) Vahl (globe fringerush); settings: Tricyclazole 200 g ai/ha
Experimental: as §12, with “stage. […]” for “stage.”
as §13
(§14) For formulated compounds, a measured amount was placed in an individual 100 or 200 mL glass vial and was dissolved in a volume of 1.25% (v/v) Agri-Dex® crop oil concentrate to obtain application solutions. […]
as §8, with “water was added as needed” for “watered by sub-irrigation”, “maintain a paddy flood.” for “prevent wash-off of the test compounds.”, “weeks” for “weeks,”

LEFCH [2] = experiment: as above; format: in vivo, Leptochloa chinensis (L.) Nees (Chinese sprangletop)
Experimental: as §12, with “stage. […]” for “stage.”
as §13, §14
as §8, with “water was added as needed” for “watered by sub-irrigation”, “maintain a paddy flood.” for “prevent wash-off of the test compounds.”, “weeks” for “weeks,”

DIGSA = experiment: Postemergence foliar-applied weed control, direct-seeded rice (greenhouse); format: in vivo, Digitaria sanguinalis (L.) Scop. (large crabgrass)
Text: as §1, §2, §3, §4, §5, §6, §7, §8

[3] = r9-11 ester 8/16/32 g ae/ha alone, r12-14 hexaconazole 25/50/100 g ai/ha alone, r15-23 ester 8/16/32 at each of 25, 50, 100
[4] = r10-12 ester 8/16/32 g ae/ha alone, r13-14 isoprothiolane 266/533 g ai/ha alone, r15-20 ester 8/16/32 at each of 266, 533
[5] = r38-39 ester 8/16 g ae/ha alone, r40 isotianil 380 g ai/ha alone, r41-42 ester 8/16 + 380

CCCCC(O)(Cn1cncn1)c1ccc(Cl)cc1Cl (racemic) [Hexaconazole, reference compound]
0%: Visual Weed Control (%)—21 DAA BRAPP Obs (BRAPP; r29-30 ester 8/16 g ae/ha alone, r31-33 hexaconazole 25/50/100 g ai/ha alone, r34-39 ester 8/16 at each of 25, 50, 100) | Visual Weed Control (%)—21 DAA CYPIR Obs (CYPIR; r45 ester 8 g ae/ha alone, r46-48 hexaconazole 25/50/100 g ai/ha alone, r49-51 ester 8 + 25/50/100) | Visual Weed Control (%)—21 DAA ECHCG Obs (ECHCG; [3]) | Visual Weed Control (%)—21 DAA ECHCO Obs (ECHCO; [3]) | Visual Weed Control (%)—21 DAA IPOHE Obs (IPOHE) | Visual Weed Control (%)—21 DAA LEFCH Obs (LEFCH [1]; [3])

CC(C)OC(=O)C(C(=O)OC(C)C)=C1SCCS1 [Isoprothiolane, diisopropyl 1,3-dithiolan-2-ylidenemalonate, reference compound]
0%: Visual Weed Control (%) - 21 DAA CYPES Obs (CYPES; [4]) | Visual Weed Control (%) - 21 DAA CYPIR Obs (CYPIR; r26-27 ester 16/32 g ae/ha alone, r28-29 isoprothiolane 266/533 g ai/ha alone, r30-33 ester 16/32 at each of 266, 533) | Visual Weed Control (%) - 21 DAA LEFCH Obs (LEFCH [1]; [4])

Cc1cccc2sc3nncn3c12 [Tricyclazole, 5-methyl-1,2,4-triazolo[3,4-b][1,3]benzothiazole, reference compound]
0%: Visual Weed Control (%) - 22 DAA CYPRO Obs (CYPRO; Tricyclazole 200 g ai/ha, 22 DAA) | Visual Weed Control (%) - 19 DAA CYPRO Obs (CYPRO; Tricyclazole 375 g ai/ha) | Visual Weed Control (%) - 19 DAA CYPRO Obs (CYPRO; Tricyclazole 750 g ai/ha) | Visual Weed Control (%) - 22 DAA FIMMI Obs (FIMMI) | Visual Weed Control (%) - 19 DAA LEFCH Obs (LEFCH [2]; Tricyclazole 187.5 g ai/ha) | Visual Weed Control (%) - 19 DAA LEFCH Obs (LEFCH [2]; Tricyclazole 750 g ai/ha)

O=C1CCc2cccc3c2N1CC3 [Pyroquilon, 1,2,5,6-tetrahydropyrrolo[3,2,1-ij]quinolin-4-one, reference compound]
0%: Visual Weed Control (%) - 21 DAA CYPES Obs (CYPES; r11-12 ester 8/16 g ae/ha alone, r13 pyroquilon 925 g ai/ha alone, r14-15 ester 8/16 + 925) | Visual Weed Control (%) - 21 DAA CYPIR Obs (CYPIR; r23-24 ester 16/32 g ae/ha alone, r25 pyroquilon 925 g ai/ha alone, r26-27 ester 16/32 + 925)

N#Cc1ccccc1NC(=O)c1snc(Cl)c1Cl [Isotianil, 3,4-dichloro-2′-cyano-1,2-thiazole-5-carboxanilide, reference compound]
0%: Visual Weed Control (%)—20 DAA BRAPP Obs (BRAPP; 20 DAA, r9-11 ester 8/16/32 g ae/ha alone, r12 isotianil 200 g ai/ha alone, r13-15 ester 8/16/32 + 200) | Visual Weed Control (%)—21 DAA BRAPP Obs (BRAPP; [5]) | Visual Weed Control (%)—20 DAA DIGSA Obs (DIGSA; 20 DAA, r21-23 ester 8/16/32 g ae/ha alone, r24-25 isotianil 100/200 g ai/ha alone, r26-31 ester 8/16/32 at each of 100, 200) | Visual Weed Control (%)—21 DAA DIGSA Obs (DIGSA; 21 DAA, r38-39 ester 8/16 g ae/ha alone, r40 isotianil 380 g ai/ha alone, r41-42 ester 8/16 + 380) | Visual Weed Control (%)—21 DAA ECHCG Obs (ECHCG; [5]) | Visual Weed Control (%)—21 DAA ECHCO Obs (ECHCO; [5]) | Visual Weed Control (%)—21 DAA LEFCH Obs (LEFCH [1]; [5])
